# Measured values reported in ChEMBL document CHEMBL3400078, “Constituents of the stem barks of Ailanthus altissima and their potential to inhibit LPS-induced nitric oxide production” (Bioorg Med Chem Lett, 2015).
# pIC50: −log10 of the molar value.
# Tested on: RAW264.7
# Experiment: Antiinflammatory activity in mouse RAW264.7 cells assessed as decrease in LPS-induced NO production after 24 hrs by Griess assay
# Type: functional, cell-based
# Settings: RAW264.7, 24 h
row,SMILES,pIC50
1,O=c1ccc2ncc(O[C@@H]3O[C@H](CO)[C@@H](O)[C@H](O)[C@H]3O[C@@H]3OC[C@](O)(CO)[C@H]3O)c3c4ccccc4n1c23,4.20
2,C[C@@](O)(CC(=O)O)CC(=O)OC[C@H]1O[C@@H](Oc2cnc3ccc(=O)n4c5ccccc5c2c34)[C@H](O)[C@@H](O)[C@@H]1O,4.07
3,C[C@@](O)(CC(=O)O)CC(=O)OC[C@H]1O[C@@H](Oc2cnc3ccc(=O)n4c5ccccc5c2c34)[C@H](O[C@@H]2OC[C@](O)(CO)[C@H]2O)[C@@H](O)[C@@H]1O,< 4.00
4,C=C1[C@@H](O)[C@]2(O)OC[C@]34[C@H]2[C@@]2(C)[C@H](O)[C@@H](O[C@@H]5O[C@H](CO)[C@@H](O)[C@H](O)[C@H]5O)C=C(C)[C@@H]2C[C@H]3OC(=O)C[C@@H]14,4.00
5,COc1cc(/C=C/C(=O)O)ccc1O[C@@H]1O[C@H](CO)[C@@H](O)[C@H](O)[C@H]1O,4.15
6,COc1cc2ccc(=O)oc2c(OC)c1O,< 4.00
7,COc1cc(C(=O)CCO)ccc1O,4.36
8,O=C(O)/C=C/c1ccc(O)cc1 [COUMARIC ACID],4.13
9,COc1cc(/C=C/C(=O)O)ccc1O [FERULATE],< 4.00
10,CC(=N)NCCCC[C@H](N)C(=O)O [L-NIL],4.80
11,O=C(O)c1ccc(O)cc1 [PARABEN],4.14
12,CC1=CC(=O)[C@@H](O)[C@]2(C)[C@H]3[C@@]4(O)C(=O)OC[C@@]35[C@@H](C[C@@H]12)OC(=O)C[C@H]5[C@H]4C [SHINJUDILACTONE],4.20
13,C=C1[C@H](O)[C@]2(O)OC[C@]34[C@H]2[C@@]2(C)[C@H](O)[C@@H](O)C=C(C)[C@@H]2C[C@H]3OC(=O)C[C@@H]14 [SHINJULACTONE A],4.25
14,COc1cc([C@H]2OC[C@H]3[C@@H]2CO[C@@H]3c2cc(OC)c(O)c(OC)c2)cc(OC)c1O [SYRINGARESINOL],4.67
15,COc1cc(C(=O)O)ccc1O [VANILLIC ACID],4.63
